System: migraine episodes in epileptic patients
Assay: Anti-migraine activity in epileptic patients (two case reports, daily topiramate)
Format: in vivo, human
Source text: Patient 1, an epileptic, suffered from complex partial seizures and frequent episodes of migraine, some of which were temporally related to their seizures. Seizures and migraines were incompletely responsive to large doses of calcium channel blockers added to their anti-epileptic drug regimen. Patient 2 suffered from complex partial seizures and frequent, severe migraine episodes, requiring regular use of sumatripan. Patient 1 took topiramate daily for 18 months. Patient 2 took topiramate daily for 10 months.

CC1(C)O[C@@H]2[C@@H](CO[C@@]3(COS(N)(=O)=O)OC(C)(C)O[C@@H]23)O1 [topiramate, 2,3:4,5-bis-O-(1-methylethydine)-β-D-fructopyranose sulfamate]
improvement in migrainous episodes (Patient 1 (epileptic, complex partial seizures, frequent migraine), 600 mg/d): substantial improvement in migrainous episodes
migrainous episodes (Patient 1, after taking 800 mg/d, verapamil, nimodipine and cimetidine withdrawn): had not experienced any migrainous episodes
adverse effects (Patient 1, daily for 18 months): did not experience any adverse effects
control of migraine episodes (Patient 1, daily for 18 months, except for one migrainous aura, all calcium channel blockers withdrawn): nearly completely controlled
improvement of migraine headaches (Patient 2 (epileptic, complex partial seizures, frequent severe migraine), 400 mg/d): substantial improvement of their migraine headaches
frequency of migraine headaches (Patient 2, after taking 200 mg/d): substantially less frequent migraine headaches
migraine status after the sixth month (Patient 2, daily for 10 months): migraine-free thereafter until the tenth month
migraine episodes in the fifth and sixth months of use (Patient 2, during brief cessation of their propanolol therapy): several episodes of basilar migraine without headache
use of sumatriptan rescue medication (Patient 2, once taking 300 mg/d): eliminating the average use of 2 administrations of sumatriptan per week
